Data on 18 compounds can be found in US12134620B2 (ARAXES PHARMA LLC, priority 2018, dated 2024).

This assay has as its target T1, KRAS G12C 1-169, his-tagged protein, GDP-loaded (Homo sapiens, UniProt P01116, G12C).
T1 construct: KRAS G12C 1-169, his-tagged protein, GDP-loaded; His tag
Description: Biochemical assay: covalent modification of KRAS G12C, analysed by mass spectrometry (RapidFire/TOF or Q-Exactive). It is filed as binding. As to conditions: Modification activity, modification percentage from MS peak intensities. As for the experimental part:
Test compounds are prepared as 10 mM stock solutions in DMSO (Fisher cat. #BP-231-100). KRAS G12C 1-169, his-tagged protein, GDP-loaded is diluted to 2 μM or 0.5 μM in buffer (20 mM Hepes, 150 mM NaCl, 1 mM MgCl2). Compounds are tested for activity as follows:
Compounds are diluted to 50× final test concentration in DMSO in 96-well storage plates. Compound stock solutions are vortexed before use and observed carefully for any sign of precipitation. Dilutions are as follow: • For 32 μM final compound concentration, compounds are diluted to 1600 μM (3 μL 10 mM compound stock+15.75 μL DMSO and mixed well by pipetting. • For 8 μM final compound concentration, compounds are diluted to 400 μM (2 μL 10 mM compound stock+48 μL DMSO) and mixed well by pipetting. 49 μL of the stock protein solution is added to each well of a 96-well PCR plate (Fisher cat #1423027). 1 μl of the diluted 50× compounds are added to appropriate wells in the PCR plate using 12-channel pipettor. Reactions are mixed carefully and thoroughly by pipetting up/down with a 200 μL multi-channel pipettor. The plate is sealed well with aluminum plate seal, and protein and compound are allowed to react for a desired amount of time. 5 μL of 2% formic acid (Fisher cat #A117) in de-ionized H2O is then added to each well followed by mixing with a pipette to quench the reaction. The plate is then resealed with aluminum seal and stored frozen on dry ice until analyzed as described below.
The above described assays are analyzed by mass spectrometry according to one of the following two procedures:
The MS instrument is set to positive polarity, 2 GHz resolution, and low mass (1700) mode and allowed to equilibrate for 30 minutes. The instrument is then calibrated, switched to acquisition mode and the appropriate method loaded.
After another 30 minute equilibration time, a blank batch (i.e., buffer) is run to ensure equipment is operating properly. The samples are thawed at 37° C. for 10 minutes, briefly centrifuged, and transfer to the bench top. Wells A1 and H12 are spiked with 1 μL 500 μM internal standard peptide, and the plates centrifuged at 2000×g for 5 minutes. The method is then run and masses of each individual well recorded.
The masses (for which integration data is desired) for each well are pasted into the platemap and exported from the analysis. Masses for the internal standards are exported as well. The data at 50 ppm is extracted for the +19 charge state, and identity of well A1 is assigned using the internal standard spike and integrated. Peak data is exported as a TOF list and the above steps are repeated individually, for the +20, +21, +22, +23, +24, and +25 charge states.
The masses and peak intensities of KRAS G12C protein species are measured using a Dionex RSLCnano system (Thermo Scientific) connected to a Q Exactive Plus mass spectrometer (Thermo Scientific).
20 μL of sample is each loaded onto a Aeris™ 3.6 μm WIDEPORE C4 200 Å, LC Column 50×2.1 mm column maintained at 40° C. at a flow rate of 600 μL/min with 80% Solvent A (0.1% formic acid in H2O) and 20% Solvent B (0.1% formic acid in acetonitrile). The liquid chromatography conditions are 20% solvent B for 1 minute, 20% to 60% solvent B for 1.5 minutes, 60% to 90% solvent for 0.5 minute, 90% solvent B for 0.2 minute, 90% to 20% solvent B for 0.2 minute, and then equilibrated for 1.6 minute before the following sample injection. The flow rate is maintained at 600 μL/min throughout the sample analysis.
The mass spectrometer is operated in profile mode at a resolution of 17500, 5 microscans, using 50 msec max injection time and an AGC target of 1×10^6, and a full mass range from 800-1850 m/z is recorded. The intact protein mode is applied for optimal ion transfer and maximum sensitivity. The ionization method is electrospray ionization, which used a spray voltage of 4 kV, sheath gas flow set to 50 AU, auxiliary gas flow set to 10 AU and sweep gas flow set to 1 AU. […]
Consider `C=CC(=O)N1CC2(CCN(c3nc(N4CCC(N5CCN(C)[C@@H](C)C5)CC4)nc(-c4c(C)ccc5cnn(C)c45)c3C#N)C2)C1` [Compound I-193, 4-(2-acryloyl-2,6-diazaspiro[3.4]octan-6-yl)-6-(1,6-dimethyl-1H-indazol-7-yl)-2-(4-((S)-3,4-dimethylpiperazin-1-yl)piperidin-1-yl)pyrimidine-5-carbonitrile], for which the Binding % entry is recorded as “+++ (+++ indicates binding activity greater than 85%)”.
Take `C=CC(=O)N1CC2(CCN(c3nc(OCc4ccccn4)nc(-c4c(C)ccc5cnn(C6CC6)c45)c3C#N)C2)C1` [Compound I-106, 4-(2-acryloyl-2,6-diazaspiro[3.4]octan-6-yl)-6-(1-cyclopropyl-6-methyl-1H-indazol-7-yl)-2-(pyridin-2-ylmethoxy)pyrimidine-5-carbontrile]: the Binding % result was “+ (+ indicates binding activity greater than 0% and up to 50%)”.
As for `C=CC(=O)N1CC2(CCN(c3ncnc(-c4c(C)ccc5[nH]nc(N)c45)c3C#N)C2)C1` [Compound I-242, 4-(2-acryloyl-2,6-diazaspiro[3.4]octan-6-yl)-6-(3-amino-5-methyl-1H-indazol-4-yl)pyrimidine-5-carbonitrile], the entry is “++ (++ indicates binding activity from 50 to 85%)”; as for `C=CC(=O)N1CC2(CCN(c3nc(N4CCCC4=O)nc(-c4c(C)ccc5[nH]ncc45)c3C#N)C2)C1` [Compound I-23, 4-(2-acryloyl-2,6-diazaspiro[3.4]octan-6-yl)-6-(5-methyl-1H-indazol-4-yl)-2-(2-oxopyrrolidin-1-yl)pyrimidine-5-carbonitrile], “++ (++ indicates binding activity from 50 to 85%)”.
Take `C=CC(=O)N1CC2(CCN(c3nc(OC[C@@H]4CCCN4C)nc(-c4c(F)cccc4C(N)=O)c3C#N)C2)C1` [Compound I-45, 2-(6-(2-acryloyl-2,6-diazaspiro[3.4]octan-6-yl)-5-cyano-2-(((S)-1-methylpyrrolidin-2-yl)methoxy)pyrimidin-4-yl)-3-fluorobenzamide]: the Binding % result was “+ (+ indicates binding activity greater than 0% and up to 50%)”.
As for `C=CC(=O)N1CC2(CCN(c3ncnc(-c4c(C)ccc5[nH]ncc45)c3CC)C2)C1` [Compound I-262, 1-(6-(5-ethyl-6-(5-methyl-1H-indazol-4-yl)pyrimidin-4-yl)-2,6-diazaspiro[3.4]octan-2-yl)prop-2-en-1-one], the entry is “+ (+ indicates binding activity greater than 0% and up to 50%)”.
Turning to `C=CC(=O)N1CC2(CCN(c3nc(N4CCN(C)C(=O)C4)nc(-c4c(C)ccc5[nH]ncc45)c3C#N)C2)C1` [Compound I-28, 4-(2-acryloyl-2,6-diazaspiro[3.4]octan-6-yl)-6-(5-methyl-1H-indazol-4-yl)-2-(4-methyl-3-oxopiperazin-1-yl)pyrimidine-5-carbonitrile], the Binding % result is given as “+++ (+++ indicates binding activity greater than 85%)”.
As for `C=CC(=O)N1CC2(CCN(c3nc(OCc4cccc(C)n4)nc(-c4c(C)ccc5cnn(C)c45)c3C#N)C2)C1` [Compound I-170, 4-(2-acryloyl-2,6-diazaspiro[3.4]octan-6-yl)-6-(1,6-dimethyl-1H-indazol-7-yl)-2-((6-methylpyridin-2-yl)methoxy)pyrimidine-5-carbonitrile], the entry is “++ (++ indicates binding activity from 50 to 85%)”; as for `C=CC(=O)N1CC2(CCN(c3nc(OC[C@@H]4CCCN4C)nc(Nc4ccccc4C(N)=O)c3C#N)C2)C1` [Compound I-36, (S)-2-((6-(2-acryloyl-2,6-diazaspiro[3.4]octan-6-yl)-5-cyano-2-((1-methylpyrrolidin-2-yl)methoxy)pyrimidin-4-yl)amino)benzamide], “+ (+ indicates binding activity greater than 0% and up to 50%)”; as for `C=CC(=O)N1CC2(CCN(c3ncnc(-c4cc5cn[nH]c5cc4C)c3C#N)C2)C1` [Compound I-234, 4-(2-acryloyl-2,6-diazaspiro[3.4]octan-6-yl)-6-(6-methyl-1H-indazol-5-yl)pyrimidine-5-carbonitrile], “+ (+ indicates binding activity greater than 0% and up to 50%)”.
The same measure for `CC#CC(=O)N1CC2(CCN(c3cncc(-c4c(C)ccc5[nH]nc(N)c45)c3C#N)C2)C1` [Compound I-278, 3-(3-amino-5-methyl-1H-indazol-4-yl)-5-(2-(but-2-ynoyl)-2,6-diazaspiro[3.4]octan-6-yl)isonicotinonitrile]: “+ (+ indicates binding activity greater than 0% and up to 50%)”.
As for `CC#CC(=O)N1CC2(CCN(c3cncc(-c4c(O)cccc4F)c3C#N)C2)C1` [Compound I-270, 3-(2-(but-2-ynoyl)-2,6-diazaspiro[3.4]octan-6-yl)-5-(2-fluoro-6-hydroxyphenyl)isoni-cotinonitrile], the entry is “+ (+ indicates binding activity greater than 0% and up to 50%)”.
Regarding `C=CC(=O)N1CC2(CCN(c3nc(OC[C@@H]4CCCN4C)nc(-c4c(F)ccc5cnn(C6CC6)c45)c3C#N)C2)C1` [Compound I-124, 4-(2-acryloyl-2,6-diazaspiro[3.4]octan-6-yl)-6-(1-cyclopropyl-6-fluoro-1H-indazol-7-yl)-2-(((S)-1-methylpyrrolidin-2-yl)methoxy)pyrimidine-5-carbonitrile], the Binding % entry is “+ (+ indicates binding activity greater than 0% and up to 50%)”.
`CC#CC(=O)N1CC2(CCN(c3nc(OC[C@@H]4CCCN4C)nc(-c4c(C)ccc5[nH]ncc45)c3C#N)C2)C1` [Compound I-104, 4-(2-(but-2-ynoyl)-2,6-diazaspiro[3.4]octan-6-yl)-6-(5-methyl-1H-indazol-4-yl)-2-(((S)-1-methylpyrrolidin-2-yl)methoxy)pyrimidine-5-carbontrile]: the Binding % entry is “+ (+ indicates binding activity greater than 0% and up to 50%)”.
The same measure for `C=CC(=O)N1CC2(CCN(c3nc(N4CCC(N5CCN(C6CC6)CC5)CC4)nc(-c4c(C)ccc5[nH]ncc45)c3C#N)C2)C1` [Compound I-217, 4-(2-acryloyl-2,6-diazaspiro[3.4]octan-6-yl)-2-(4-(4-cyclopropylpiperazin-1-yl)piperidin-1-yl)-6-(5-methyl-1H-indazol-4-yl)pyrimidine-5-carbonitrile]: “++ (++ indicates binding activity from 50 to 85%)”; for `C=CC(=O)N1CC2(CCN(c3nc(OC[C@@H]4CCCN4C)nc(-c4n[nH]c5ccccc45)c3C#N)C2)C1` [Compound I-90, (S)-4-(2-acryloyl-2,6-diazaspiro[3.4]octan-6-yl)-6-(1H-indazol-3-yl)-2-((1-methylpyrrolidin-2-yl)methoxy)pyrimidine-5-carbonitrile]: “+ (+ indicates binding activity greater than 0% and up to 50%)”.
As for `C=CC(=O)N1CC2(CCN(c3cncc(-c4c(C)ccc5[nH]nc(N)c45)c3C#N)C2)C1` [Compound I-277, 3-(2-acryloyl-2,6-diazaspiro[3.4]octan-6-yl)-5-(3-amino-5-methyl-1H-indazol-4-yl)isonicotinonitrile], the entry is “++ (++ indicates binding activity from 50 to 85%)”.
As for `C=CC(=O)N1CC2(CCN(c3ncnc(-c4c(C)ccc5[nH]cnc45)c3C#N)C2)C1` [Compound I-250, 4-(2-acryloyl-2,6-diazaspiro[3.4]octan-6-yl)-6-(5-methyl-1H-benzo[d]imidazol-4-yl)pyrimidine-5-carbonitrile], the entry is “+ (+ indicates binding activity greater than 0% and up to 50%)”.
